Some test systems named below: HS 578T breast; HT29 colon; MDA-MB-435; MOLT-4 leukemia; OVCAR-5 ovarian; RPMI-8226 leukemia; SK-MEL-28 melanoma; SNB-75 CNS; T-47D breast; EKVX NSCLC.
Assay in all cases: NCI tumour cell line growth inhibition, 48 h

The structures appear in SMILES notation.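 Briefly, cells in 96-well plates were exposed to five compound concentrations for 48 h, and endpoints were estimated by linear interpolation. GI50: concentration for 50% inhibition of growth. Definition used: TGI = concentration required for complete inhibition of growth.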 A value given as a limit tells only on which side of the number the result lay.

For the molecule `CC(C)N(C[C@H]1O[C@@H](n2cnc3c(N)ncnc32)[C@H](O)[C@@H]1O)C1CC(CCc2nc3ccc(C(C)(C)C)cc3[nH]2)C1` (stereo partly drawn), the GI50 was above 76.5 µM in the assay with HS 578T breast; 94.8 µM in the assay with HT29 colon; above 54.7 µM in the assay with MDA-MB-435; 30.9 µM in the assay with MOLT-4 leukemia; above 46.9 µM in the assay on OVCAR-5 ovarian; 46 µM in the assay on RPMI-8226 leukemia. Besides, the figures for the GI50 in the assay with SK-MEL-28 melanoma, in the assay with SNB-75 CNS and in the assay with T-47D breast were above 39.3 µM, 24.9 µM and 68.5 µM, respectively. Moreover, the TGI in the assay with HS 578T breast is above 100 µM; in the assay on HT29 colon it was above 100 µM; in the assay with MDA-MB-435, above 100 µM; in the assay on MOLT-4 leukemia it was above 81.3 µM; in the assay with OVCAR-5 ovarian, above 100 µM; with RPMI-8226 leukemia, above 100 µM. Besides, the TGI was above 54.1 µM in the assay with SK-MEL-28 melanoma, above 100 µM with SNB-75 CNS and above 100 µM in the assay with T-47D breast.

As for `Cc1sc(/N=C2/NC(=O)CS2)nc1-c1nc(/N=C2/NC(=O)CS2)sc1C`, the GI50 in the assay on EKVX NSCLC is 1.33 µM; in the assay on HS 578T breast, 2.17 µM; in the assay with HT29 colon, 32.2 µM; in the assay on MDA-MB-435 it was above 50 µM; with MOLT-4 leukemia, 19.9 µM; in the assay on OVCAR-5 ovarian, above 50 µM. In addition, the GI50 in the assay on RPMI-8226 leukemia is 9.59 µM; in the assay with SK-MEL-28 melanoma, 26.7 µM; in the assay with SNB-75 CNS it was above 50 µM. For the same molecule, the TGI with EKVX NSCLC is above 50 µM; with HS 578T breast, 36.3 µM; in the assay with HT29 colon it was above 50 µM; in the assay with MDA-MB-435, above 50 µM; with MOLT-4 leukemia, above 50 µM; in the assay with OVCAR-5 ovarian, above 50 µM. The TGI in the assay with RPMI-8226 leukemia is 49.1 µM; in the assay on SK-MEL-28 melanoma it was above 50 µM; in the assay with SNB-75 CNS it was above 50 µM.

Take `Oc1[nH]c2ccc(Cl)cc2c1/C=c1/ccc2c(c1)N=C(c1cc(F)cc(F)c1)N=2`: the GI50 is 27.7 µM in the assay on EKVX NSCLC; 2.9 µM in the assay with HS 578T breast; 3.32 µM in the assay with MOLT-4 leukemia; above 100 µM in the assay with OVCAR-5 ovarian; 3.31 µM in the assay on RPMI-8226 leukemia; 5.06 µM in the assay with SK-MEL-28 melanoma. Further, the GI50 is 2.06 µM in the assay on SNB-75 CNS and 4.47 µM in the assay on T-47D breast. In addition, the TGI with EKVX NSCLC, in the assay with HS 578T breast, in the assay on MOLT-4 leukemia, with OVCAR-5 ovarian, in the assay on RPMI-8226 leukemia and with SK-MEL-28 melanoma was above 100 µM throughout. The TGI is 7.13 µM with SNB-75 CNS and above 100 µM in the assay on T-47D breast.

For `CC(C)CNc1nc(N=[N+]=[N-])nc(NCC(C)C)n1`, the GI50 with HS 578T breast, in the assay with HT29 colon, with MDA-MB-435, in the assay with MOLT-4 leukemia, in the assay on OVCAR-5 ovarian and with RPMI-8226 leukemia was above 10 µM in each case. Also, the GI50 in the assay on SK-MEL-28 melanoma, in the assay on SNB-75 CNS and with T-47D breast was above 10 µM in each case. Also, the TGI with HS 578T breast, in the assay on HT29 colon, with MDA-MB-435, in the assay with MOLT-4 leukemia, with OVCAR-5 ovarian and in the assay on RPMI-8226 leukemia was above 10 µM throughout. The TGI in the assay on SK-MEL-28 melanoma, in the assay with SNB-75 CNS and with T-47D breast was above 10 µM each time.

`C[C@@H](Oc1cc(-c2cnn(C3CC4(CCCNC4)C3)c2)cnc1N)c1c(Cl)ccc(F)c1Cl` (stereo partly drawn): the GI50 with HS 578T breast is 1.63 µM; in the assay on HT29 colon, 0.607 µM; in the assay with MDA-MB-435, 0.77 µM; in the assay on MOLT-4 leukemia, 1.22 µM; in the assay on OVCAR-5 ovarian, 1.29 µM; in the assay with RPMI-8226 leukemia it was 1.9 µM. Moreover, the GI50 is 1.54 µM in the assay with SK-MEL-28 melanoma, 1.64 µM in the assay with SNB-75 CNS and 1.61 µM in the assay on T-47D breast. The TGI in the assay on HS 578T breast came out at 4.47 µM; in the assay with HT29 colon, 2.3 µM; with MDA-MB-435, 2.18 µM; in the assay with MOLT-4 leukemia, 5.46 µM; in the assay on OVCAR-5 ovarian it was 4.93 µM; in the assay with RPMI-8226 leukemia it was 5.05 µM. Also, the TGI in the assay on SK-MEL-28 melanoma was 3.03 µM; with SNB-75 CNS, 3.96 µM; in the assay with T-47D breast it was 3.42 µM.

For `CCNCCNc1cc(-c2cccc(C(F)(F)F)c2)c(C#N)c2nc3ccccc3n12`, the GI50 was 1.75 µM in the assay on EKVX NSCLC; 1.84 µM in the assay on HS 578T breast; 1.24 µM with HT29 colon; 1.52 µM with MDA-MB-435; 1.83 µM in the assay with OVCAR-5 ovarian; 1.86 µM in the assay on SK-MEL-28 melanoma. Also, the GI50 is 1.5 µM with SNB-75 CNS and 2.2 µM in the assay on T-47D breast. Further, the TGI is 3.45 µM in the assay on EKVX NSCLC; 3.88 µM in the assay on HS 578T breast; 2.65 µM in the assay with HT29 colon; 2.88 µM with MDA-MB-435; 3.71 µM in the assay on OVCAR-5 ovarian; 3.63 µM in the assay with SK-MEL-28 melanoma. For the same molecule, the TGI was found to be 2.92 µM with SNB-75 CNS and 4.21 µM in the assay on T-47D breast.

In the case of `CCN(CC)c1ccc2nc3c4ccccc4c(=NC(=O)c4ccccc4-c4c5ccc(N(CC)CC)cc5[o+]c5cc(N(CC)CC)ccc45)cc-3oc2c1`, the GI50 in the assay with EKVX NSCLC is 3.52 µM; in the assay on HT29 colon, 2.73 µM; with MDA-MB-435, 1.93 µM; in the assay on MOLT-4 leukemia it was 1.81 µM; in the assay with OVCAR-5 ovarian, 3.23 µM; in the assay on RPMI-8226 leukemia it was 0.722 µM. In addition, the GI50 is 5.06 µM with SK-MEL-28 melanoma, 8.27 µM in the assay with SNB-75 CNS and 5.25 µM in the assay on T-47D breast. Further, the TGI is above 32.6 µM in the assay with EKVX NSCLC; above 32.2 µM in the assay with HT29 colon; 4.33 µM in the assay on MDA-MB-435; above 100 µM in the assay with MOLT-4 leukemia; 11.9 µM in the assay with OVCAR-5 ovarian; 4.2 µM in the assay with RPMI-8226 leukemia. Moreover, the TGI in the assay on SK-MEL-28 melanoma was found to be 12.4 µM; in the assay with SNB-75 CNS it was 23.5 µM; in the assay with T-47D breast it was 17.3 µM.

On to `CCCCCc1c(C)[nH]c(/C=c2\[nH]/c(=C3/C=c4ccccc4=N3)cc2OC)c1C`, for which the GI50 was 0.0846 µM in the assay on HS 578T breast; 0.0455 µM in the assay on MDA-MB-435; 0.102 µM in the assay with MOLT-4 leukemia; 0.0654 µM in the assay on OVCAR-5 ovarian; 0.0614 µM in the assay with RPMI-8226 leukemia; 0.125 µM in the assay with SK-MEL-28 melanoma. Besides, the GI50 is 0.107 µM in the assay on SNB-75 CNS and 0.0588 µM in the assay on T-47D breast. Also, the TGI in the assay with HS 578T breast turned out to be 0.883 µM; in the assay on MDA-MB-435, 1.16 µM; with MOLT-4 leukemia, 3.85 µM; with OVCAR-5 ovarian, 1.81 µM; in the assay on RPMI-8226 leukemia, 0.682 µM; with SK-MEL-28 melanoma it was 1.22 µM. Also, the TGI is 0.583 µM in the assay on SNB-75 CNS and 0.698 µM in the assay on T-47D breast.

Source of the values: PubChem BioAssay (NCI).
